Experimental data from US12325708B2, “Adenosine 2 receptor antagonists” (Nektar Therapeutics, priority 2019, dated 2025).

Key:
[1] = Plasma pharmacokinetic parameters following intravenous (IV) or oral (PO) administration in rats; format: in vivo, Sprague-Dawley rats; conditions: male, Sprague-Dawley, rat, plasma, Table 6
Outline: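 Fasted male Sprague-Dawley rats (230-250 g, n=2/group), dosed 0.5 mg/kg IV (jugular) or 2.5 mg/kg PO gavage in water. Plasma sampled 2–1440 min, analyzed by LC-MS/MS; non-compartmental analysis with nominal doses/times gave AUC, Cmax, Tmax, CL, Vss, MRTlast, F.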

[2] = Brain-to-plasma ratio (B/P) after administration; format: in vivo, Sprague-Dawley rats; conditions: Sprague-Dawley, rat, oral, 2.5 mg/kg; Table 6; brain-to-plasma ratio at 1 h
Outline: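 Plasma pharmacokinetic parameters determined after oral (PO) administration; brain-to-plasma concentration ratio (B/P) used as the brain penetration measure.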

A2A receptor = biological target: T1, A2A receptor (Homo sapiens, UniProt P29274); assay: Radioligand receptor binding assay, A2A receptor; conditions: cell membranes overexpressing A2A receptor, read-out: Potency Ki A2A
T1 construct: purchased
Outline: (§1)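 Membranes from cell lines overexpressing human A2A, A1 or A3 receptors were incubated 60 min at room temperature with the receptor-appropriate [3H] tracer. After filtration and washing in 50 mM Tris HCl pH 7.5, bound label was counted by scintillation. IC50 came from nonlinear regression and Ki from the Cheng-Prusoff equation.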

A1 receptor = biological target: T2, A1 receptor (Homo sapiens, UniProt P30542); assay: Radioligand receptor binding assay, A1 receptor; conditions: cell membranes overexpressing A1 receptor, read-out: Potency Ki A1
T2 construct: purchased
T2 sequence (P30542 1-326): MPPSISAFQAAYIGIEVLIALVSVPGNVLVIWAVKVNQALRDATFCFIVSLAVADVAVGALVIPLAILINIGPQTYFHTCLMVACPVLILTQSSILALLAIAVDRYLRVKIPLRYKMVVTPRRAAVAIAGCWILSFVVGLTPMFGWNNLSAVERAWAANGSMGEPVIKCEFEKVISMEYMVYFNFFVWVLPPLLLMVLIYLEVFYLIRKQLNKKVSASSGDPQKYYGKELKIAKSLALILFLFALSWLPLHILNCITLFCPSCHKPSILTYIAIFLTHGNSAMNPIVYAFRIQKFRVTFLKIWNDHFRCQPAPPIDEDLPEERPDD
Outline: as §1

A3 receptor = biological target: T3, A3 receptor (Homo sapiens, UniProt P0DMS8); assay: Radioligand receptor binding assay, A3 receptor; conditions: cell membranes overexpressing A3 receptor, read-out: Potency Ki A3
T3 construct: purchased
T3 sequence (P0DMS8 1-318): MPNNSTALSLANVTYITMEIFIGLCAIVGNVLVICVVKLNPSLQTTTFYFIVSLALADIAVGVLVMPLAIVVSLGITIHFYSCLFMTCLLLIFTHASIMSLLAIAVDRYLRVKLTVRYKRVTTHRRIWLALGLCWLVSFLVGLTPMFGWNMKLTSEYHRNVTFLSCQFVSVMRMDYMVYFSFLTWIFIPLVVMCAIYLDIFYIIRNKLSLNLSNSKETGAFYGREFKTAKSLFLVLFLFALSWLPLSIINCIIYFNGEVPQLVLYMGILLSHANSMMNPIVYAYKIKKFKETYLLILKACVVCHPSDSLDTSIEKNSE
Method: Using conventional receptor binding assay techniques, Compounds 1-24 were assayed to determine binding activity at the A2A, A1, and A3 receptors with the results shown in Table 7.
Receptor binding affinity of Compounds 1-24 was measured using radioligand binding assays using commercially obtained cell membranes prepared from cell lines overexpressing the A2A, A1, or A3 receptors. Briefly, cell membrane preparations from cells expressing the specific receptor were mixed with the appropriate [^3H]-labeled tracer for the specific receptor and the test compound or a known inhibitor of receptor-ligand binding. Following 60 min incubation at room temperature to allow receptor-ligand complex formation, the complexes were collected by filtration, washed with 50 mM Tris HCl (pH 7.5) to remove radioligand that was not receptor-bound, and the remaining radioactivity determined by liquid scintillation counting. Specific radioligand binding was calculated for each test compound concentration and IC50 values were determined by non-linear, regression analysis. Inhibition constants (Ki) were calculated using the equation of Cheng and Prusoff using the observed IC50 of the tested compound, the concentration of radioligand employed in the assay and the experimentally determined values for the Kd of the ligand.

T1 sequence (P29274 whole entry): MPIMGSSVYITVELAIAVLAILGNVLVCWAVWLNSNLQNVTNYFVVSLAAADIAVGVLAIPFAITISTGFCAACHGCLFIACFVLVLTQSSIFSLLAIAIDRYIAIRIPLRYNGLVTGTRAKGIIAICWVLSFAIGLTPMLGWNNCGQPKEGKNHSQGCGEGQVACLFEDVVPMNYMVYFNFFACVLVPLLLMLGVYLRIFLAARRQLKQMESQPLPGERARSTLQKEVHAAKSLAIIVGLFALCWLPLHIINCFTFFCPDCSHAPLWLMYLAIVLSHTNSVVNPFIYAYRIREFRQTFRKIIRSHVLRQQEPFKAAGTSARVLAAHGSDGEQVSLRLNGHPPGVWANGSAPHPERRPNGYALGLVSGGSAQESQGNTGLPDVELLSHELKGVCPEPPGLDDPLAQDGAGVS

AUC ([1]; 2.5 mg/kg, oral (PO) administration essentially as described in Example 28): 1200 ng·h/mL | clearance ([1]; intravenous, 0.5 mg/kg, essentially as described in Example 28): 20 mL/min/kg | bioavailability ([1]; po, 2.5 mg/kg, oral (PO) administration essentially as described in Example 28): 58% | Kp at 1 h [2]: 0.06 | Ki (A2A receptor): 0.004 µM | Ki (A1 receptor): > 100 µM | Ki (A3 receptor): > 10 µM
Structure (SMILES): [2H]C([2H])([2H])OC([2H])([2H])C([2H])([2H])Oc1ccc(N2CCN(C([2H])([2H])C([2H])([2H])N(c3cc4nc(-c5ncco5)nn4c(N)n3)C([2H])([2H])[2H])CC2)cc1 [Compound 16, N^7-(^2H3)methyl-N^7-[2-{4-[4-({2-[(^2H3)methyloxy](^2H4)ethyl}oxy)phenyl]piperazin-1-yl}(^2H4)ethyl]-2-(1,3-oxazol-2-yl)[1,2,4]triazolo[1,5-c]pyrimidine-5,7-diamine]
